We go through 27 molecules from patent US20240228535A1 (priority 2022, published 2024).

Each structure is given as a SMILES string.

The experiment concerns the target SARS2 coronavirus 3CL protease (Severe acute respiratory syndrome coronavirus 2, UniProt P0DTD1). Kind of experiment: biochemical. The following applies: 5 nM enzyme, 30 min pre-incubation with compound, 15 μM peptide substrate, 4 h at room temperature; read-out: FRET Potency (nM); IC50 values in the SARS2 3CLPro FRET assay.
As for `CNC(=O)C(=O)[C@H](C[C@@H]1CCNC1=O)NC(=O)c1cc(Cl)ccc1NC(=O)c1ccnc(C(F)(F)F)c1` [Example 90], the IC50 was 12.3 nM. Take `CNC(=O)C(=O)[C@H](C[C@@H]1C[C@@H](C)NC1=O)NC(=O)c1cc(Cl)ccc1NC(=O)c1cncc(C(F)(F)F)c1` [Example 91, N-[4-chloro-2-[[(1S)-3-(methylamino)-1-[[(3S,5R)-5-methyl-2-oxo-pyrrolidin-3-yl]methyl]-2,3-dioxo-propyl]carbamoyl]phenyl]-5-(trifluoromethyl)pyridine-3-carboxamide]: the IC50 was 6.1 nM.

Regarding `C[C@@H]1C[C@@H](C[C@H](NC(=O)c2cc(Cl)ccc2NC(=O)c2ccnc(C(F)F)c2)C(=O)C(=O)NC2CC2)C(=O)N1` [Example 92, N-[4-chloro-2-[[(1S)-3-(cyclopropylamino)-1-[[(3S,5R)-5-methyl-2-oxo-pyrrolidin-3-yl]methyl]-2,3-dioxo-propyl]carbamoyl]phenyl]-2-(difluoromethyl)pyridine-4-carboxamide], the IC50 was determined as 9 nM.

On to `CC(C(=O)Nc1ccc(Cl)cc1C(=O)N[C@@H](C[C@@H]1C[C@@H](C)NC1=O)C(=O)C(=O)NC1CC1)c1cscn1` (stereo partly drawn) [Example 93, 5-chloro-N-[(1S)-3-(cyclopropylamino)-1-[[(3S,5R)-5-methyl-2-oxo-pyrrolidin-3-yl]methyl]-2,3-dioxo-propyl]-2-(2-thiazol-4-ylpropanoylamino)benzamide], for which the IC50 is 12.6 nM.

As to `C[C@@H]1C[C@@H](C[C@H](NC(=O)c2cc(Cl)ccc2NC(=O)c2cncc(C(F)(F)F)c2)C(=O)C(=O)NC2CC2)C(=O)N1` [Example 94, N-[4-chloro-2-[[(1S)-3-(cyclopropylamino)-1-[[(3S,5R)-5-methyl-2-oxo-pyrrolidin-3-yl]methyl]-2,3-dioxo-propyl]carbamoyl]phenyl]-5-(trifluoromethyl)pyridine-3-carboxamide], the IC50 came to 10.6 nM. In the case of `CNC(=O)C(=O)[C@H](C[C@@H]1CCNC1=O)NC(=O)c1cc(C(F)(F)F)ccc1NC(=O)C1(C(F)(F)F)CC1` [Example 95, N-[(1S)-3-(methylamino)-2,3-dioxo-1-[[(3S)-2-oxopyrrolidin-3-yl]methyl]propyl]-5-(trifluoromethyl)-2-[[1-(trifluoromethyl)cyclopropane-carbonyl]amino]benzamide], the IC50 stood at 44.7 nM. Then `CC(C)OC(=O)Nc1ccc(Cl)cc1C(=O)N[C@@H](C[C@@H]1CCNC1=O)C(=O)C(=O)NC1CC1` [Example 96, isopropyl N-[4-chloro-2-[[(1S)-3-(cyclopropylamino)-2,3-dioxo-1-[[(3S)-2-oxopyrrolidin-3-yl]methyl]propyl]carbamoyl]phenyl]carbamate], with 6 nM.

As for `C[C@@H]1C[C@@H](C[C@H](NC(=O)c2cc(Cl)ccc2NC(=O)C2CC2C(F)(F)F)C(=O)C(=O)NC2CC2)C(=O)N1` (stereo partly drawn) [Example 97, 5-chloro-N-[(1S)-3-(cyclopropylamino)-1-[[(3S,5R)-5-methyl-2-oxo-pyrrolidin-3-yl]methyl]-2,3-dioxo-propyl]-2-[[2-(trifluoromethyl)cyclopropane-carbonyl]amino]benzamide], the IC50 is 7.7 nM. The same measure for `C[C@@H]1C[C@@H](C[C@H](NC(=O)c2cc(Cl)ccc2NC(=O)C2CC2C(F)(F)F)C(=O)C(=O)NC2CC2)C(=O)N1` (stereo partly drawn) [Example 98, 5-chloro-N-[(1S)-3-(cyclopropylamino)-1-[[(3S,5R)-5-methyl-2-oxo-pyrrolidin-3-yl]methyl]-2,3-dioxo-propyl]-2-[[2-(trifluoromethyl)cyclopropane-carbonyl]amino]benzamide]: 9.5 nM. The same measure for `C[C@@H]1C[C@@H](C[C@H](NC(=O)c2cc(F)c(F)cc2NC(=O)c2cncc(C(F)(F)F)c2)C(=O)C(=O)NC2CC2)C(=O)N1` [Example 99, N-[2-[[(1S)-3-(cyclopropylamino)-1-[[(3S,5R)-5-methyl-2-oxo-pyrrolidin-3-yl]methyl]-2,3-dioxo-propyl]carbamoyl]-4,5-difluoro-phenyl]-5-(trifluoromethyl)pyridine-3-carboxamide]: 13 nM; for `C[C@@H]1C[C@@H](C[C@H](NC(=O)c2cc(Cl)ccc2NC(=O)c2ccn(CC(F)(F)F)n2)C(=O)C(=O)NC2CC2)C(=O)N1` [Example 100, N-[4-chloro-2-[[(1S)-3-(cyclopropylamino)-1-[[(3S,5R)-5-methyl-2-oxo-pyrrolidin-3-yl]methyl]-2,3-dioxo-propyl]carbamoyl]phenyl]-1-(2,2,2-trifluoroethyl)pyrazole-3-carboxamide]: 5.9 nM; for `COC(=O)Nc1ccc(Cl)cc1C(=O)N[C@@H](C[C@@H]1C[C@@H](C)NC1=O)C(=O)C(=O)NC1CC1` [Example 101, methyl N-[4-chloro-2-[(1S)-3-(cyclopropylamino)-1-[[(3S,5R)-5-methyl-2-oxo-pyrrolidin-3-yl]methyl]-2,3-dioxo-propyl]carbamoyl]phenyl] carbamate]: 7.8 nM. Regarding `O=C(NC1CC1)C(=O)[C@H](C[C@@H]1CCNC1=O)NC(=O)c1cc(Cl)ccc1NC(=O)C1(C(F)(F)F)CC1` [Example 102], the IC50 worked out at 12.9 nM. Then `CNC(=O)C(=O)[C@H](C[C@@H]1C[C@@H](C)NC1=O)NC(=O)c1ccccc1NC(=O)OC` [Example 103, methyl N-[2-[[(1S)-3-(methylamino)-1-[[(3S,5R)-5-methyl-2-oxo-pyrrolidin-3-yl]methyl]-2,3-dioxo-propyl]carbamoyl]phenyl] carbamate], with 86.2 nM; and `CNC(=O)C(=O)[C@H](C[C@@H]1C[C@@H](C)NC1=O)NC(=O)c1cc(F)ccc1NC(=O)OC` [Example 104, methyl N-[4-fluoro-2-[(1S)-3-(methylamino)-1-[[(3S,5R)-5-methyl-2-oxo-pyrrolidin-3-yl]methyl]-2,3-dioxo-propyl]carbamoyl]phenyl] carbamate], with 15.3 nM; and `C[C@@H]1C[C@@H](C[C@H](NC(=O)c2cc(Cl)ccc2NC(=O)N(C)CC2CCC(F)(F)CC2)C(=O)C(=O)NC2CC2)C(=O)N1` [Example 105, 5-chloro-N—((S)-4-(cyclopropylamino)-1-((3S,5R)-5-methyl-2-oxopyrrolidin-3-yl)-3,4-dioxobutan-2-yl)-2-(3-((4,4-difluorocyclohexyl)methyl)-3-methylureido)benzamide], with 10.9 nM. As for `CNC(=O)C(=O)[C@H](C[C@@H]1CCNC1=O)NC(=O)c1cc(Cl)ccc1NC(=O)OC` [Example 106], the IC50 stood at 4.3 nM. The same measure for `COC(=O)Nc1ccc(Cl)cc1C(=O)N[C@@H](C[C@@H]1C[C@@H](C)NC1=O)C(=O)C(N)=O` [Example 107, methyl N-[2-[[(1S)-3-amino-1-[[(3S,5R)-5-methyl-2-oxo-pyrrolidin-3-yl]methyl]-2,3-dioxo-propyl]carbamoyl]-4-chloro-phenyl]carbamate]: 12.6 nM; for `[2H]C([2H])([2H])OC(=O)Nc1ccc(Cl)cc1C(=O)N[C@@H](C[C@@H]1CCNC1=O)C(=O)C(=O)NC` [Example 108, trideuteriomethyl N-[4-chloro-2-[[(1S)-3-(methylamino)-2,3-dioxo-1-[[(3S)-2-oxopyrrolidin-3-yl]methyl]propyl]carbamoyl]phenyl]carbamate]: 4.8 nM. Then `CNC(=O)C(=O)[C@H](C[C@@H]1CCNC1=O)NC(=O)c1cc(F)c(F)cc1NC(=O)OC` [Example 109, methyl N-[4,5-difluoro-2-[[(1S)-3-(methylamino)-2,3-dioxo-1-[[(3S)-2-oxopyrrolidin-3-yl]methyl]propyl]carbamoyl]phenyl]carbamate], with 6 nM. The same measure for `CNC(=O)C(=O)[C@H](C[C@@H]1CCNC1=O)NC(=O)c1cc(Cl)ccc1NC(=O)C1CC1` [Example 110, 5-chloro-2-(cyclopropanecarbonylamino)-N-[(1S)-3-(methylamino)-2,3-dioxo-1-[[(3S)-2-oxopyrrolidin-3-yl]methyl]propyl]benzamide]: 3.1 nM; for `CCOC(=O)Nc1ccc(Cl)cc1C(=O)N[C@@H](C[C@@H]1CCNC1=O)C(=O)C(=O)NC` [Example 111, ethyl N-[4-chloro-2-[[(1S)-3-(methylamino)-2,3-dioxo-1-[[(3S)-2-oxopyrrolidin-3-yl]methyl]propyl]carbamoyl]phenyl]carbamate]: 5.8 nM.

In the case of `[2H]C([2H])([2H])OC(=O)Nc1ccc(Cl)cc1C(=O)N[C@@H](C[C@@H]1C[C@@H](C)NC1=O)C(=O)C(=O)NC` [Example 112, trideuteriomethyl N-[4-chloro-2-[[(1S)-3-(methylamino)-1-[[(3S,5R)-5-methyl-2-oxo-pyrrolidin-3-yl]methyl]-2,3-dioxo-propyl]carbamoyl]phenyl] carbamate], the IC50 was found to be 6 nM. Then `CNC(=O)C(=O)[C@H](C[C@@H]1C[C@@H](C)NC1=O)NC(=O)c1nc(Cl)ccc1NC(=O)OC` [Example 113], with 1290 nM. Take `C[C@@H]1C[C@@H](C[C@H](NC(=O)c2cc(Cl)ccc2NC(=O)CCC(F)(F)F)C(=O)C(=O)NCc2ccncc2)C(=O)N1` [Example 114, 5-chloro-N-[(1S)-1-[[(3S,5R)-5-methyl-2-oxo-pyrrolidin-3-yl]methyl]-2,3-dioxo-3-(4-pyridylmethylamino)propyl]-2-(4,4,4-trifluorobutanoylamino) benzamide]: the IC50 turned out to be 18.9 nM. Then `C[C@@H]1C[C@@H](C[C@H](NC(=O)c2cc(Cl)ccc2NC(=O)CCC(F)(F)F)C(=O)C(=O)NCc2ccccc2)C(=O)N1` [Example 115, N—((S)-4-(benzylamino)-1-((3S,5R)-5-methyl-2-oxopyrrolidin-3-yl)-3,4-dioxobutan-2-yl)-5-chloro-2-(4,4,4-trifluorobutanamido)benzamide], with 11.5 nM; and `C[C@@H]1C[C@@H](C[C@H](NC(=O)c2cc(Cl)ccc2NC(=O)CCC(F)(F)F)C(=O)C(=O)NCc2nc[nH]n2)C(=O)N1` [Example 116, 5-chloro-N-[(1S)-1-[[(3S,5R)-5-methyl-2-oxo-pyrrolidin-3-yl]methyl]-2,3-dioxo-3-(1H-1,2,4-triazol-3-ylmethylamino)propyl]-2-(4,4,4-trifluorobutanoylamino) benzamide], with 20.9 nM.
